Consider two compounds from patent publication US8816101B2, “Paraconic acids as pigmentation activators” (Centre National de la Recherche Scientifique—CNRS, priority 2010, dated 2014).

The subject of the assay is B16 murine cells. The assay can be described thus: Melanin content of B16 murine cells by spectrophotometry (pigmenting activity in vitro). Type of assay: cell-based. Conditions: B16 cells treated 72 h. Here is the method: Protocol: The melanin content of B16 murine cells is determined by spectrophotometry.
The cells are seeded in 10-cm Petri dishes at a density of 1×10^6 per dish and are treated every 24 hours for 72 hours with the specified dose of purified lichenic substance, dissolved in DMSO. […] After treatment, the cells are washed twice with PBS and recovered by treatment with trypsin. The number of cells recovered is estimated by counting using a haemocytometer. One fraction is used for determining the melanin content and a second fraction for the concentration of protein. The melanin content is determined from the absorbance at 405 nm (VersaMax Microplate Reader, Molecular Devices, USA) of the cellular solution after solubilization of the melanin with 1M sodium hydroxide, for 15 min at 80° C. The protein concentration is determined according to the protocol of the “DC Protein Assay” kit developed by Bio-Rad Laboratories, USA. For each sample treated, the melanin content is referred to the amount of protein and expressed as percentage relative to the control situation (DMSO solution only). Each measurement is performed in triplicate and each experiment is carried out independently for a minimum of 3 times.
The molecules tested, with their concentrations expressed in μM, are shown on the abscissa.
On the ordinate, the melanin content is expressed as percentage relative to the control (DMSO alone=concentration of 0.1%).

As to `CCCCCCCCCCCCC[C@H]1OC(=O)C(C)=C1C(=O)O` [lichesterinic acid, (+)-Lichesterinic acid], the “pro-pigmenting effect (% of pigmentation)” value (5 μM, relative to DMSO control) amounted to 26%.
With `C=C1C(=O)O[C@H](CCCCCCCCCCCCC)[C@H]1C(=O)O` [protolichesterinic acid, (+)-Protolichesterinic acid], where the note is “0.5 μM, control DMSO 0.1%”, the “pigmentation relative to the control (melanin content)” value is listed as 72%. Under “0.5 μM, relative to DMSO control”, this compound yielded a depigmentation of 28%.
